Experimental findings from publication PMC7026641, “Identification of the 3-amino-3-carboxypropyl (acp) transferase enzyme responsible for acp^3U formation at position 47 in Escherichia coli tRNAs” (Nucleic Acids Research, 2019) are described below.

In experiment [1] the target is T1, YfiP (TuaA, tRNA U47 acp transferase A) (Escherichia coli, UniProt Q47319).
T1 construct: gene tapT; E. coli YfiP with a C-terminal 6xHis-tag
T1 sequence (Q47319 1-232): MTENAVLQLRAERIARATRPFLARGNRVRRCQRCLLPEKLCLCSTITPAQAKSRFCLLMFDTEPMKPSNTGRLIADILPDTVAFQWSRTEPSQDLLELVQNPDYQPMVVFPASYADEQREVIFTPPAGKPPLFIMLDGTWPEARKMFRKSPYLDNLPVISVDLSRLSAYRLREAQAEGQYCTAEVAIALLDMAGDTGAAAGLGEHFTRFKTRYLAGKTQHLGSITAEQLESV
Kind of experiment: ITC, […]°C, one-site binding model.

In experiment [2] the target is T1, YfiP (TuaA, tRNA U47 acp transferase A). Kind of experiment: ITC, […]°C, one-site binding model; also in vitro acp transfer to tRNA.

In experiment [1], `CSC[C@H]1O[C@@H](n2cnc3c(N)ncnc32)[C@H](O)[C@@H]1O` [5-MTA, 5′-methyl 5′-deoxythioadenosine] yielded a Kd of 131 µM.

Compound `C[S+](CC[C@H](N)C(=O)O)C[C@H]1O[C@@H](n2cnc3c(N)ncnc32)[C@H](O)[C@@H]1O` (stereo partly drawn) [SAM, S-adenosyl methionine] came in with a Kd in experiment [2] of 32 µM. That is a double-digit micromolar value.

Take `Nc1ncnc2c1ncn2[C@@H]1O[C@H](CSCC[C@H](N)C(=O)O)[C@@H](O)[C@H]1O` [SAH, S-adenosylhomocysteine]: binding in experiment [1] was put at a Kd of 84 µM. That is a double-digit micromolar value.
